# Assay results reported in patent US20170050980A1, “OXADIAZINE COMPOUNDS AND METHODS OF USE THEREOF” (FORUM Pharmaceuticals Inc., priority 2015, published 2017).
# Tested on: Aβ42
# Assay: In vitro cell screening assay; quantification of Aβ (1-42) peptide by sandwich ELISA
# Type: cell-based
# Conditions: Human neuroglioma H4 cells stably expressing human wild type APP751; compounds 0.003-10 μM, incubated overnight (16-18 h); Aβ42 in supernatant by sandwich ELISA; normalized to DMSO and DAPT; read-out: Aβ42 H4 Prot Fre IC50
# Procedure: Human neuroglioma H4 cells were transfected with a pcDNA3.1 plasmid expressing human wild type APP751 cDNA and a stable cell line was generated using G418 selection. Cells were plated at 15,000 cells/well in Costar 96-well plates and placed at 37° C. and 5% CO2. Six hours after plating, cells were washed three times with Pro293™ chemically defined medium, followed by addition of compounds (0.003-10 μM, final DMSO concentration of 0.33%). Plates were incubated overnight (16-18 h) and supernatant was removed for quantification of Aβ peptides by sandwich ELISA. Cytotoxicity was evaluated using Cell-Titer 96W AQueous One Solution Cell Proliferation Assay according to the manufacturer's protocol.
# Aβ peptide levels were quantified by sandwich ELISA. 96-well plates were coated with C-terminal specific Aβ antibodies recognizing either Aβ37, Aβ38, Aβ40, Aβ42, Aβ43 or a N-terminal specific Aβ antibody to detect Aβ 1-x. Plates were then blocked overnight at 4° C. with 1% bovine serum albumin (BSA) in PBS-T. Plates were washed and 100 μl of cultured cell supernatant or synthetic Aβ peptide standards and a detection antibody (4G8-HRP) were applied to the blocked plate and incubated overnight at 4° C. The next day, wells were washed before the addition of detection substrate (TMB peroxidase). Plates were then read for absorbance at 450 nm on a Molecular Devices SpectraMax M5e Microplate Reader.
# Compound-treated samples were normalized to samples treated with DMSO alone (no inhibition) and to samples treated with DAPT. IC50 values were calculated from values reported as percent of DMSO controls using nonlinear regression, based on a sigmoidal dose—response (variable slope) model. […] used for calculation.
row,SMILES,IC50 [µM]
1,"COc1nc(C2=NOCC3CN(c4ccc(Cl)cc4C(F)(F)F)CCN23)ccc1-n1cnc(C)c1 (single isomer, unassigned) [Example 36A, 8-(4-chloro-2-(trifluoromethyl)phenyl)-4-(6-methoxy-5-(4-methyl-1H-imidazol-1-yl)pyridin-2-yl)-1,6,7,8,9,9a-hexahydropyrazino [1,2-d] [1,2, 4] oxadiazine]",0.064
2,"COc1nc(C2=NOCC3CN(c4ccc(Cl)cc4C(F)(F)F)CCN23)ccc1-n1cnc(C)c1 (single isomer, unassigned) [Example 36B, 8-(4-chloro-2-(trifluoromethyl)phenyl)-4-(6-methoxy-5-(4-methyl-1H-imidazol-1-yl)pyridin-2-yl)-1,6,7,8,9,9a-hexahydropyrazino [1,2-d] [1,2,4] oxadiazine]",0.307
3,"COc1nc(C2=NOC(C)C(c3cccc(Cl)c3)N2)ccc1-n1cnc(C)c1 (single isomer, unassigned) [Example 41A, 5-(3-chlorophenyl)-3-(6-methoxy-5-(4-methyl-1H-imidazol-1-yl)pyridin-2-yl)-6-methyl-5,6-dihydro-4H-1,2,4-oxadiazine]",1.43
4,"COc1nc(C2=NOC(C)C(c3cccc(Cl)c3)N2)ccc1-n1cnc(C)c1 (single isomer, unassigned) [Example 41B, 5-(3-chlorophenyl)-3-(6-methoxy-5-(4-methyl-1H-imidazol-1-yl)pyridin-2-yl)-6-methyl-5,6-dihydro-4H-1,2,4-oxadiazine]",0.0142
5,"COc1nc(C2=NOC(C)C(c3cc4ccc(Cl)cc4o3)N2)ccc1-n1cnc(C)c1 (single isomer, unassigned) [Example 46A, 5-(6-chlorobenzofuran-2-yl)-3-(6-methoxy-5-(4-methyl-1H-imidazol-1-yl)pyridin-2-yl)-6-methyl-5,6-dihydro-4H-1,2,4-oxadiazine]",0.225
6,"COc1nc(C2=NOC(C)C(c3cc4ccc(Cl)cc4o3)N2)ccc1-n1cnc(C)c1 (single isomer, unassigned) [Example 46B, 5-(6-chlorobenzofuran-2-yl)-3-(6-methoxy-5-(4-methyl-1H-imidazol-1-yl)pyridin-2-yl)-6-methyl-5,6-dihydro-4H-1,2,4-oxadiazine]",0.0051
7,"COc1nc(C2=NOC(C)C(c3cc4ccc(Cl)cc4o3)N2)ccc1-n1cnc(C)c1 (single isomer, unassigned) [Example 46C, 5-(6-chlorobenzofuran-2-yl)-3-(6-methoxy-5-(4-methyl-1H-imidazol-1-yl)pyridin-2-yl)-6-methyl-5,6-dihydro-4H-1,2,4-oxadiazine]",0.291
8,"COc1nc(C2=NOC(C)C(c3cc4ccc(Cl)cc4o3)N2)ccc1-n1cnc(C)c1 (single isomer, unassigned) [Example 46D, 5-(6-chlorobenzofuran-2-yl)-3-(6-methoxy-5-(4-methyl-1H-imidazol-1-yl)pyridin-2-yl)-6-methyl-5,6-dihydro-4H-1,2,4-oxadiazine]",0.0028
9,"COc1nc(C2=NOC(C)C(c3cn(C)c4ncc(C(F)(F)F)cc34)N2)ccc1-n1cnc(C)c1 (single isomer, unassigned; (+)) [44B or 45B, (+)-3-(6-methoxy-5-(4-methyl-1H-imidazol-1-yl)pyridin-2-yl)-6-methyl-5-(1-methyl-5-(trifluoromethyl)-1H-pyrrolo[2,3-b]pyridin-3-yl)-5,6-dihydro-4H-1,2,4-oxadiazine]",0.0082
10,"COc1nc(C2=NOC(C)C(c3cn(C)c4ncc(C(F)(F)F)cc34)N2)ccc1-n1cnc(C)c1 (single isomer, unassigned; (+)) [44D or 45D, (+)-3-(6-methoxy-5-(4-methyl-1H-imidazol-1-yl)pyridin-2-yl)-6-methyl-5-(1-methyl-5-(trifluoromethyl)-1H-pyrrolo[2,3-b]pyridin-3-yl)-5,6-dihydro-4H-1,2,4-oxadiazine]",0.0043
11,"COc1nc(C2=NOC(C)C(c3cn(C)c4cc(F)c(Cl)cc34)N2)ccc1-n1cnc(C)c1 (single isomer, unassigned; (+)) [Example 21B, (+)-5-(5-chloro-6-fluoro-1-methyl-1H-indol-3-yl)-3-(6-methoxy-5-(4-methyl-1H-imidazol-1-yl)pyridin-2-yl)-6-methyl-5,6-dihydro-4H-1,2,4-oxadiazine]",0.003
12,"COc1nc(C2=NOC(C)C(c3cn(C)c4cc(F)c(Cl)cc34)N2)ccc1-n1cnc(C)c1 (single isomer, unassigned; (+)) [Example 21D, (+)-5-(5-chloro-6-fluoro-1-methyl-1H-indol-3-yl)-3-(6-methoxy-5-(4-methyl-1H-imidazol-1-yl)pyridin-2-yl)-6-methyl-5,6-dihydro-4H-1,2,4-oxadiazine]",0.002
13,"COc1nc(C2=NOC(C)(C)C(c3ccccc3)N2)ccc1-n1cnc(C)c1 (single isomer, unassigned; (+)) [Example 22B, (+)-3-[6-methoxy-5-(4-methyl-1H-imidazol-1-yl)pyridin-2-yl]-6,6-dimethyl-5-phenyl-5,6-dihydro-4H-1,2,4-oxadiazine]",0.075
14,"COc1nc(C2=NOC(C)(C)C(c3ccc(Cl)cc3)N2)ccc1-n1cnc(C)c1 (single isomer, unassigned; (+)) [Example 23B, (+)-5-(4-chlorophenyl)-3-[6-methoxy-5-(4-methyl-1H-imidazol-1-yl)pyridin-2-yl]-6,6-dimethyl-5,6-dihydro-4H-1,2,4-oxadiazine]",0.023
15,"COc1nc(C2=NOC3(CC3)C(c3ccc(Cl)cc3)N2)ccc1-n1cnc(C)c1 (single isomer, unassigned; (+)) [Example 25B, (+)-8-(4-chlorophenyl)-6-[6-methoxy-5-(4-methyl-1H-imidazol-1-yl)pyridin-2-yl]-4-oxa-5,7-diazaspiro[2.5]oct-5-ene]",0.026
16,"COc1nc(C2=NOCC(C)(c3cn(C)c4ccccc34)N2)ccc1-n1cnc(C)c1 (single isomer, unassigned; (+)) [Example 26A, (+)-3-[3-[6-methoxy-5-(4-methyl-1H-imidazol-1-yl)pyridin-2-yl]-5-methyl-5,6-dihydro-4H-1,2,4-oxadiazin-5-yl]-1-methyl-1H-indole]",0.048
17,"COc1nc(C2=NOCC(c3c4n(c5ccc(Cl)cc35)CCOC4)N2)ccc1-n1cnc(C)c1 (single isomer, unassigned; (+)) [Example 28A, (+)-8-chloro-10-(3-(6-methoxy-5-(4-methyl-1H-imidazol-1-yl)pyridin-2-yl)-5,6-dihydro-4H-1,2,4-oxadiazin-5-yl)-3,4-dihydro-1H-[1,4]oxazino[4,3-a]indole]",0.0053
18,"COc1nc(C2=NOCC(c3cn(C)c4ccc(C5CCOCC5)cc34)N2)ccc1-n1cnc(C)c1 (single isomer, unassigned; (+)) [Example 29B, (+)-3-(6-methoxy-5-(4-methyl-1H-imidazol-1-yl)pyridin-2-yl)-5-(1-methyl-5-(tetrahydro-2H-pyran-4-yl)-1H-indol-3-yl)-5,6-dihydro-4H-1,2,4-oxadiazine]",0.0205
19,"COc1nc(C2=NOCC(c3c4n(c5ccccc35)CCOC4)N2)ccc1-n1cnc(C)c1 (single isomer, unassigned; (+)) [Example 30B, (+)-10-(3-(6-methoxy-5-(4-methyl-1H-imidazol-1-yl)pyridin-2-yl)-5,6-dihydro-4H-1,2,4-oxadiazin-5-yl)-3,4-dihydro-1H-[1,4]oxazino[4,3-a]indole]",0.0169
20,"COc1nc(C2=NOC(C)C(c3cn(C)c4cc(F)c(F)cc34)N2)ccc1-n1cnc(C)c1 (single isomer, unassigned; (+)) [Example 39A, (+)-5-(5,6-difluoro-1-methyl-1H-indol-3-yl)-3-(6-methoxy-5-(4-methyl-1H-imidazol-1-yl)pyridin-2-yl)-6-methyl-5,6-dihydro-4H-1,2,4-oxadiazine]",0.0054
21,"COc1nc(C2=NOC(C)C(c3cn(C)c4cc(F)c(F)cc34)N2)ccc1-n1cnc(C)c1 (single isomer, unassigned; (+)) [Example 39D, (+)-5-(5,6-difluoro-1-methyl-1H-indol-3-yl)-3-(6-methoxy-5-(4-methyl-1H-imidazol-1-yl)pyridin-2-yl)-6-methyl-5,6-dihydro-4H-1,2,4-oxadiazine]",0.0044
22,"COc1nc(C2=NOC(C)C(c3ccc(Cl)cc3)N2)ccc1-n1cnc(Cl)c1 (single isomer, unassigned; (+)) [Example 42B, (+)-3-(5-(4-chloro-1H-imidazol-1-yl)-6-methoxypyridin-2-yl)-5-(4-chlorophenyl)-6-methyl-5,6-dihydro-4H-1,2,4-oxadiazine]",0.0184
23,"COc1cc(C2=NOC(C)C(c3ccc(Cl)cc3)N2)ccc1-n1cnc(C)c1 (single isomer, unassigned; (+)) [Example 43B, (+)-5-(4-chlorophenyl)-3-(3-methoxy-4-(4-methyl-1H-imidazol-1-yl)phenyl)-6-methyl-5,6-dihydro-4H-1,2,4-oxadiazine]",0.0805
